Values quoted from earlier work, collected in patent publication US20060002865A1, “Stable baking soda/peroxide with calcium and phosphate whitening product” (priority 2004, published 2006).

Key:
[1] = aqueous solution, pH about 7.0, about 25° C.

O.O.O=P([O-])([O-])O.[Ca+2] [dicalcium phosphate dihydrate]
calcium cations released [1]: about 40 ppm

Sodium perborate
solubility in water: about 2.5%

[Mg+2].[O-][O-] [Magnesium peroxide]
solubility in water (in words): essentially insoluble
